Experimental data as given in patent US20100331348A1, “TROPANE DERIVATIVES USEFUL AS PESTICIDES” (SYNGENTA CROP PROTECTION, INC., priority 2007, published 2010).
Read-outs that look alike come from different tables or passages of the source.

Assays:
Aedes aegypti = Aedes aegypti (Yellow fever mosquito) larvae test; type: in vivo; conditions: 48 h
[1] = test system: Puccinia recondita f.sp. tritici; assay: Puccinia recondita f.sp. tritici (wheat brown rust) leaf disk assay; type: in vivo; conditions: foliar, 216 h, preventive, nine days after inoculation, read-out: control of fungal infection, Puccinia recondita f.sp. tritici
Phytophthora infestans = assay: whole plant or invertebrate; type: in vivo; conditions: foliar, 96 h, read-out: control of fungal infection, Phytophthora infestans
Heliothis virescens = Heliothis virescens (Tobacco budworm) egg test on artificial diet; conditions: 96 h, read-out: control of Heliothis virescens
Tetranychus urticae = conditions: foliar, 192 h, read-out: control of Tetranychus urticae
Plutella xylostella = Plutella xylostella (Diamond back moth) artificial diet test; conditions: 120 h, read-out: control of Plutella xylostella
Pyricularia oryzae = assay: whole plant or invertebrate; type: in vivo; conditions: foliar, 96 h
Plasmopara viticola = Plasmopara viticola (downy mildew of grapevine) leaf disk assay; type: in vivo; conditions: foliar, 168 h, preventive, seven days after inoculation, read-out: control of fungal infection, Plasmopara viticola
[2] = test system: Erysiphe graminis f.sp. tritici; assay: Erysiphe graminis f.sp. tritici (wheat powdery mildew) leaf disk assay; type: in vivo; conditions: Blumeria graminis, foliar, 96 h, preventive, four days after inoculation, read-out: control of fungal infection, Erysiphe graminis fsp. tritici
Pythium ultimum = Pythium ultimum (Damping off) growth inhibition in potato dextrose broth; type: cell-based; conditions: Globisporangium ultimum, 48 hours, read-out: control of fungal infection, Pythium ultimum
[3] = read-out: control of fungal infection, Pyricularia oryzae (at least 60% list)
[4] = read-out: control of fungal infection, Pyricularia oryzae (at least 80% list)

SMILES	pest or weed control at 2 ppm (Aedes aegypti) [%]	pest or weed control at 200 ppm [1] [%]	pest or weed control at 200 ppm (Phytophthora infestans) [%]	pest or weed control at 200 ppm (Heliothis virescens) [%]	pest or weed control at 200 ppm (Tetranychus urticae) [%]	pest or weed control at 200 ppm (Plutella xylostella) [%]	pest or weed control at 200 ppm (Pyricularia oryzae; [3]) [%]	pest or weed control at 200 ppm (Plasmopara viticola) [%]	pest or weed control at 200 ppm [2] [%]	pest or weed control at 200 ppm (Pyricularia oryzae; [4]) [%]	inhibition of growth at 200 ppm (Pythium ultimum) [%]
CCC(=O)c1ccc(OC2C[C@H]3CC[C@@H](C2)N3c2ncnc(CC)c2Cl)cc1 (stereo partly shown) [Example 2.166]	≥ 80	≥ 80	≥ 80	≥ 80	≥ 80						
CCc1ncnc(N2C3CCC2CC(=NOCc2ccc(Br)cc2F)C3)c1Cl [Example 5.85]				≥ 80	≥ 80	≥ 80					
COc1ccc(CC2CC3CCC(C2)N3c2ncnc3sccc23)cc1 (stereo not shown) [Example 7.11]	≥ 80	≥ 80		≥ 80	≥ 80		≥ 60	≥ 80			
CCC(=O)c1cc(F)c(OC2C[C@H]3CC[C@@H](C2)N3c2ncnc3sccc23)c(F)c1 (stereo partly shown) [Example 2.66]	≥ 80		≥ 80		≥ 80	≥ 80		≥ 80	≥ 80		
CCc1ncnc(N2C3CCC2CC(=NOCc2noc(C)n2)C3)c1Cl [Example 5.92]	≥ 80	≥ 80		≥ 80	≥ 80	≥ 80			≥ 80		
CCc1ccc(CON=C2CC3CCC(C2)N3c2ncnc3sccc23)cc1 [Example 5.151]	≥ 80	≥ 80	≥ 80		≥ 80			≥ 80	≥ 80	≥ 80	
N#Cc1ccc(CON=C2CC3CCC(C2)N3c2ncnc3sccc23)cc1 [Example 5.163]	≥ 80	≥ 80	≥ 80	≥ 80		≥ 80			≥ 80	≥ 80	
FC(F)(F)c1ccc(OC2C[C@H]3CC[C@@H](C2)N3c2ncnc3ccsc23)nc1 (stereo partly shown) [Example 2.77]		≥ 80					≥ 60		≥ 80		≥ 60
Cc1ccc(CC2CC3CCC(C2)N3c2ncnc3sccc23)cc1 (stereo not shown) [Example 7.8]	≥ 80	≥ 80		≥ 80		≥ 80	≥ 60	≥ 80		≥ 80	
Cc1ccc(CON=C2CC3CCC(C2)N3c2ncnc3sccc23)cc1 [Example 5.145]	≥ 80	≥ 80	≥ 80	≥ 80	≥ 80	≥ 80	≥ 60	≥ 80	≥ 80		
CCc1ncnc(N2C3CCC2CC(=NOCc2ccccc2)C3)c1Cl [Example 5.5]	≥ 80	≥ 80	≥ 80	≥ 80		≥ 80			≥ 80		
CCc1ncnc(N2C3CCC2CC(Cc2ccc(OC)cc2)C3)c1Cl (stereo not shown) [Example 7.32]	≥ 80	≥ 80		≥ 80	≥ 80	≥ 80					
Cc1csc2ncnc(N3[C@@H]4CC[C@H]3CC(Oc3ccc(C(F)(F)F)cn3)C4)c12 (stereo partly shown) [Example 2.71]	≥ 80				≥ 80		≥ 60	≥ 80	≥ 80		
CCCC1COC2(CC3CCC(C2)N3c2ncnc3sccc23)O1 (stereo not shown) [Example 6.10]	≥ 80	≥ 80			≥ 80	≥ 80		≥ 80	≥ 80	≥ 80	
COCc1ncnc(N2[C@@H]3CC[C@H]2CC(Oc2ccc(C(F)(F)F)cn2)C3)c1OC (stereo partly shown) [Example 2.167]				≥ 80					≥ 80		
CCc1ncnc(N2C3CCC2CC(=CCOc2ccc(Cl)c(OC)c2)C3)c1Cl [Example 3.13]	≥ 80	≥ 80		≥ 80						≥ 80	

SMILES	pest or weed control at 2 ppm (Aedes aegypti) [%]	pest or weed control at 200 ppm [1] [%]	pest or weed control at 200 ppm (Phytophthora infestans) [%]	pest or weed control at 200 ppm (Heliothis virescens) [%]	pest or weed control at 200 ppm (Tetranychus urticae) [%]	pest or weed control at 200 ppm (Plutella xylostella) [%]	pest or weed control at 200 ppm (Pyricularia oryzae; [3]) [%]	pest or weed control at 200 ppm (Plasmopara viticola) [%]	pest or weed control at 200 ppm [2] [%]	pest or weed control at 200 ppm (Pyricularia oryzae; [4]) [%]	inhibition of growth at 200 ppm (Pythium ultimum) [%]
CCc1ncnc(N2C3CCC2CC(=CCOc2cccc(F)c2)C3)c1Cl [Example 3.12]	≥ 80	≥ 80		≥ 80		≥ 80				≥ 80	
Cn1nc(C(F)(F)F)cc1C(=O)N1[C@@H]2CC[C@H]1CC(Oc1ccc(C(F)(F)F)cn1)C2 (stereo partly shown) [Example 2.222]				≥ 80					≥ 80		
CCCCC1COC2(CC3CCC(C2)N3c2ncnc3sccc23)O1 (stereo not shown) [Example 6.3]	≥ 80		≥ 80	≥ 80		≥ 80		≥ 80	≥ 80		
CCc1ncnc(N2C3CCC2CC(=NOCc2ccc(C#N)cc2)C3)c1Cl [Example 5.14]		≥ 80		≥ 80		≥ 80			≥ 80	≥ 80	
Cc1ccc(OCC=C2CC3CCC(C2)N3c2ncnc3sccc23)cc1 [Example 3.30]	≥ 80	≥ 80	≥ 80	≥ 80				≥ 80		≥ 80	
CCc1ncnc(N2C3CCC2CC(=NOCc2cc(F)c(F)cc2F)C3)c1Cl [Example 5.87]	≥ 80	≥ 80		≥ 80		≥ 80			≥ 80		
CCc1ncnc(N2C3CCC2CC(=NOCc2ccc(OC)cc2)C3)c1Cl [Example 5.16]	≥ 80	≥ 80		≥ 80	≥ 80	≥ 80		≥ 80	≥ 80		
Fc1cc(Cl)cnc1OC1C[C@H]2CC[C@@H](C1)N2c1ncnc2sccc12 (stereo partly shown) [Example 1.72]		≥ 80		≥ 80			≥ 60		≥ 80	≥ 80	
CCc1ncnc(N2C3CCC2CC(=NOCc2csc(C)n2)C3)c1Cl [Example 5.98]	≥ 80	≥ 80							≥ 80		≥ 60
FC(F)(F)c1ccc(OC2C[C@H]3CC[C@@H](C2)N3c2ncnc3ccccc23)nc1 (stereo partly shown) [Example 2.85]	≥ 80			≥ 80	≥ 80		≥ 60		≥ 80		
CCc1ncnc(N2C3CCC2CC(=NOCc2cc(F)ccc2F)C3)c1Cl [Example 5.73]	≥ 80	≥ 80		≥ 80		≥ 80	≥ 60		≥ 80		
CCc1ncnc(N2[C@@H]3CC[C@H]2CC(Oc2ccc(C)nc2)C3)c1Cl (stereo partly shown) [Example 2.151]	≥ 80								≥ 80		≥ 60
FC(F)(F)c1ccc(CON=C2CC3CCC(C2)N3c2ncnc3sccc23)cc1 [Example 5.160]	≥ 80	≥ 80	≥ 80		≥ 80	≥ 80		≥ 80	≥ 80	≥ 80	
CCc1ncnc(N2C3CCC2CC(Cc2ccc(C)cc2)C3)c1Cl (stereo not shown) [Example 7.26]	≥ 80			≥ 80		≥ 80					
C#CCN(CC#C)C1C[C@H]2CC[C@@H](C1)N2c1ncnc(CC)c1Cl (stereo partly shown) [Example 4.19]		≥ 80		≥ 80							
Fc1ccc(F)c(CON=C2CC3CCC(C2)N3c2ncnc3sccc23)c1F [Example 5.228]	≥ 80	≥ 80	≥ 80		≥ 80	≥ 80	≥ 60	≥ 80	≥ 80		
